Measured values published in PubChem BioAssay (NCI).
Where “and” joins values, the source holds several entries; their conditions need not be identical. Equal entries are not always repeated.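 Grown in 96-well plates, cells were treated for 48 hours with each compound at five concentrations. Insufficient inhibition: endpoint recorded as highest concentration tested. GI50: concentration for 50% inhibition of growth. TGI marks complete inhibition of growth.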

How the values were obtained:
Assay in all cases: inhibition of tumour cell growth, NCI panel, 48 h
ACHN renal = tested on: ACHN renal
CCRF-CEM leukemia = tested on: CCRF-CEM leukemia
HS 578T breast = tested on: HS 578T breast
K-562 leukemia = tested on: K-562 leukemia
MALME-3M melanoma = tested on: MALME-3M melanoma
OVCAR-3 ovarian = tested on: OVCAR-3 ovarian
SF-295 CNS = tested on: SF-295 CNS
SF-539 CNS = tested on: SF-539 CNS
SK-MEL-5 melanoma = tested on: SK-MEL-5 melanoma
SN12C renal = tested on: SN12C renal

SMILES	GI50 (ACHN renal) [µM]	TGI (ACHN renal) [µM]	GI50 (CCRF-CEM leukemia)	TGI (CCRF-CEM leukemia) [µM]	GI50 (HS 578T breast) [nM]	TGI (HS 578T breast) [µM]	GI50 (K-562 leukemia) [µM]	TGI (K-562 leukemia)	GI50 (MALME-3M melanoma) [µM]	TGI (MALME-3M melanoma) [µM]	GI50 (OVCAR-3 ovarian) [µM]	TGI (OVCAR-3 ovarian)	GI50 (SF-295 CNS) [µM]	TGI (SF-295 CNS) [µM]	GI50 (SF-539 CNS) [µM]	TGI (SF-539 CNS) [µM]	GI50 (SK-MEL-5 melanoma) [µM]	TGI (SK-MEL-5 melanoma) [µM]	GI50 (SN12C renal) [µM]	TGI (SN12C renal)
Cc1ccc2[nH]c(C(=O)NN3C(=O)CSC34CCCC(C)C4)c(-c3ccccc3)c2c1 (stereo not given)	18.3	36.1	10.8 µM	31.8	28200	68	12.7	39.2 µM	18.3	34.7	13.8	30.3 µM	17.2	33.5	21	39.4	17.4	34.9	16.6	32.2 µM
COc1cc(C2CC(c3ccc4c(c3)OCO4)=NN2C(C)=O)cc(OC)c1OC (stereo not given)	3.66	> 100	0.79 µM	> 27	1260	> 74.1	0.353	> 100 µM	1.88	> 100	0.297	0.808 µM	0.368	4.51	0.592	7.29	0.419	8.07	7.48	> 100 µM
Cc1ccccc1-n1c(/C=C\c2ccccn2)nc2ccccc2c1=O	12.8	> 100	4.24 µM	30.1	15500	> 100	4.42	90.2 µM	18.8	42.1	6.75	53.6 µM	6.76	47.3	18.6	55	9.61	22.6	21.2	> 100 µM
C=CC[Se]C(=O)Cc1c(C)n(C(=O)c2ccc(Cl)cc2)c2ccc(OC)cc12	1.79	3.25	2.58 µM	7.64	2250	7.33	3.22	19.2 µM	1.71	3.45	1.78	3.24 µM	0.334	1.45	1.66	3.02	1.73	3.13	1.68	3.05 µM
CS(=O)c1ccc(-c2nc(-c3ccc(F)cc3)c(-c3ccncc3)[nH]2)cc1 (stereo not given)	21.4	> 100	27.3 µM	> 100	33300	> 100	25	> 100 µM	14.2	64.9	25.9	> 100 µM	29.1	> 71.6	44.8	> 100	20.3	50.5	41.9	> 100 µM
COc1cccc(Cn2cc3c(c2)-c2oncc2CC3)c1	0.876	> 100	0.253 µM	–	249	0.886	0.315	> 100 µM	0.915	80.1	0.267	0.7 µM	0.245	1.04	0.266	–	0.44	3.09	0.597	> 100 µM
CCCC[P+](c1ccccc1)(c1ccccc1)c1ccccc1	29	> 100	1.72 µM	> 100	3380	20.7	0.577	> 100 µM	4.29	> 100	1.13	23.3 µM	5.29	37.3	7.09	> 100	0.534	6.63	4.35	> 100 µM
O=C1/C(=C/c2ccc([N+](=O)[O-])s2)Oc2ccccc21	0.568	1.77	0.282 µM	0.874	882	> 48.6	0.243	0.728 µM	1.39	3.92	0.25	0.55 µM	2.07	4.63	0.654	2.1	1.18	2.62	1.23	3.04 µM
C#CCOc1ccc2ncnc(Nc3ccc(NC(=O)CCl)cc3)c2c1	11	23.3	2.38 µM	12.2	5610	61.7	–	–	4.58	18.1	4.68	17.2 µM	10.1	24.5	2.89	10.6	3.87	15.5	6.4	36.9 µM
O=C(NCCCNC(=O)OCc1ccc2c(Br)cc(Br)c(O)c2n1)OCc1ccc2c(Br)cc(Br)c(O)c2n1	> 100	> 100	> 100 µM	> 100	> 100000	> 100	> 100	> 100 µM	> 100	> 100	> 100	> 100 µM	> 100	> 100	> 100	> 100	> 100	> 100	> 100	> 100 µM
COc1ccc(C2C(c3ccccc3)C(=O)N2c2cc(OC)c(OC)c(OC)c2)cc1I (stereo not given)	–	–	0.365 µM	> 100	435	> 100	0.339	> 100 µM	> 100	> 100	0.28	0.802 µM	0.337	> 100	0.234	0.657	0.224	0.729	0.523	> 100 µM
COc1cc(OC)c(OC)cc1/C=C1\C=Cc2ccccc21	–	> 100	–	> 100	–	96.2	–	> 100 µM	–	56.8	–	–	–	57.6	–	35.8	–	26.1	–	36.7 µM
CC[C@@H](C)[C@H]([C@H](CC(=O)N1CCC[C@@H]1[C@@H](OC)[C@H](C)C(=O)N[C@H](Cc1ccccc1)c1nccs1)OC)N(C)C(=O)[C@H](NC(=O)[C@@H](C(C)C)N(C)C)C(C)C	–	> 100	0.000257 µM and 0.000425 µM	–	0.0695	4.06	0.000425	2.86 µM and > 4.64 µM	0.000425	–	–	0.000158 µM and < 0.087 µM	–	–	–	0.00161	–	0.000656	0.000425	4.25 µM and > 14.7 µM
